Assay results reported in ChEMBL document CHEMBL1201862, “PubChem BioAssay data set” (2004).
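The compound was tested at five concentrations on cells cultured in 96-well plates, with a 48-hour exposure period. GI50 is the concentration that inhibits growth by half.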 Calls of active or inactive are those of the source. Rule as the data show it: active = GI50 up to about 1.1 µM and inactive = higher.

How the values were obtained:
Experiment in all cases: NCI anticancer screen, dose series, 48 h
Hs-578T = tested on: Hs-578T
MCF7 = tested on: MCF7
RPMI-8226 = tested on: RPMI-8226
786-0 = tested on: 786-0
OVCAR-4 = tested on: OVCAR-4
SF-268 = tested on: SF-268
UO-31 = tested on: UO-31
ACHN = tested on: ACHN
RXF 393 = tested on: RXF 393
EKVX = tested on: EKVX
SK-MEL-2 = tested on: SK-MEL-2
HOP-92 = tested on: HOP-92
SNB-19 = tested on: SNB-19
SNB-75 = tested on: SNB-75
T47D = tested on: T47D
BT-549 = tested on: BT-549
PC-3 = tested on: PC-3
K562 = tested on: K562
SK-OV-3 = tested on: SK-OV-3
M14 = tested on: M14

SMILES | GI50 (Hs-578T) | GI50 (MCF7) | GI50 (RPMI-8226) | GI50 (786-0) | GI50 (OVCAR-4) | GI50 (SF-268) | GI50 (UO-31) | GI50 (ACHN) | GI50 (RXF 393) | GI50 (EKVX) | GI50 (SK-MEL-2) | GI50 (HOP-92) | GI50 (SNB-19) | GI50 (SNB-75) | GI50 (T47D) | GI50 (BT-549) | GI50 (PC-3) | GI50 (K562) | GI50 (SK-OV-3) | GI50 (M14)
COc1ccc(C(OC(=O)[C@H](O[Si](C)(C)C(C)(C)C)[C@@H](NC(=O)c2ccccc2)c2ccccc2)c2ccc(OC)cc2)cc1 | > 100 µM (inactive) | 65 µM (inactive) | < 0.01 µM (active) | > 100 µM (inactive) | > 100 µM (inactive) | > 100 µM (inactive) | > 100 µM (inactive) | > 100 µM (inactive) | > 100 µM (inactive) | > 100 µM (inactive) | > 100 µM (inactive) | > 100 µM (inactive) | > 100 µM (inactive) | > 100 µM (inactive) | > 100 µM (inactive) | > 100 µM (inactive) | > 100 µM (inactive) | 24.8 µM (inactive) |  | 
O=C(N[C@H]1CCC[C@H]1C(=O)Nc1ccc(C(F)(F)F)cc1)OCc1ccccc1 | 88.5 µM (inactive) | > 100 µM (inactive) | > 100 µM (inactive) | > 100 µM (inactive) | > 100 µM (inactive) | > 100 µM (inactive) | > 100 µM (inactive) | > 100 µM (inactive) | > 100 µM (inactive) | > 100 µM (inactive) | > 100 µM (inactive) | > 100 µM (inactive) | > 100 µM (inactive) |  | > 100 µM (inactive) | > 100 µM (inactive) | > 100 µM (inactive) | > 100 µM (inactive) | > 100 µM (inactive) | > 100 µM (inactive)
CN(C)CCCNC(=O)c1cc2/c(=C\c3ccc(N(C)C)cc3)c3ccccc3n2[n+]1C | > 100 µM (inactive) | 21.8 µM (inactive) | 20.4 µM (inactive) | 52.8 µM (inactive) | 8.77 µM (inactive) | 32.6 µM (inactive) | > 100 µM (inactive) | > 100 µM (inactive) | > 100 µM (inactive) | 17.9 µM (inactive) | 17.6 µM (inactive) | 22.9 µM (inactive) | 24.8 µM (inactive) |  | 1.45 µM (inactive) | 63.7 µM (inactive) | 39.5 µM (inactive) | 8.83 µM (inactive) | > 100 µM (inactive) | 21.4 µM (inactive)
N#CC1=C(S)N(C2OC(CO)C(O)C(O)C2O)C(c2ccccc2)=CC1c1cccs1 (stereo unspecified) | 23.4 µM (inactive) | 15.3 µM (inactive) | 26.3 µM (inactive) | 16.5 µM (inactive) | 33.8 µM (inactive) | 24.8 µM (inactive) | 48.8 µM (inactive) | 18.7 µM (inactive) | 20 µM (inactive) |  | 22.5 µM (inactive) | 23.3 µM (inactive) | > 10 µM (inactive) | 20.5 µM (inactive) | 19.2 µM (inactive) | 16.1 µM (inactive) | 15.1 µM (inactive) | 31.1 µM (inactive) |  | 33.3 µM (inactive)
CSc1nc2ccccc2c(=O)n1/N=C1\C(=O)N(CN2CCOCC2)c2ccc(Cl)cc21 | 44.2 µM (inactive) | 19.6 µM (inactive) |  | 34.8 µM (inactive) | 33.8 µM (inactive) | 36.9 µM (inactive) | 28.1 µM (inactive) | 26.1 µM (inactive) | 18.1 µM (inactive) | 2.6 µM (inactive) | 20.6 µM (inactive) | 67 µM (inactive) | 46.8 µM (inactive) | 41.5 µM (inactive) | 16.5 µM (inactive) | 15.6 µM (inactive) | 29 µM (inactive) | 5.77 µM (inactive) | 30.6 µM (inactive) | 26.5 µM (inactive)
O=C(O)CSCc1cc2c(O)c(c1)Cc1cc(CSCC(=O)O)cc(c1O)Cc1cc(CSCC(=O)O)cc(c1O)Cc1cc(CSCC(=O)O)cc(c1O)C2 | > 100 µM (inactive) | > 100 µM (inactive) | > 100 µM (inactive) | > 100 µM (inactive) | > 100 µM (inactive) | > 100 µM (inactive) | > 100 µM (inactive) | > 100 µM (inactive) | > 100 µM (inactive) | > 100 µM (inactive) | > 100 µM (inactive) | > 100 µM (inactive) | > 100 µM (inactive) |  | > 100 µM (inactive) | 29 µM (inactive) | > 100 µM (inactive) | > 100 µM (inactive) | > 100 µM (inactive) | > 100 µM (inactive)
CC(=O)O[C@H]1[C@@H]2OC(=O)[C@@](O)(CC3CCCO3)[C@@H]2CC(=O)[C@](C)(O)CC/C=C(\C)CCC[C@@H]1C (stereo partly specified) | 63.4 µM (inactive) | 24.7 µM (inactive) | 26.2 µM (inactive) | 37.9 µM (inactive) | 52.8 µM (inactive) | > 100 µM (inactive) | 61.8 µM (inactive) | 38.8 µM (inactive) | 20 µM (inactive) | 52.8 µM (inactive) | 57.5 µM (inactive) | 28.2 µM (inactive) | > 100 µM (inactive) | 97.5 µM (inactive) | 24.8 µM (inactive) | 26.2 µM (inactive) | 36.5 µM (inactive) | 24.4 µM (inactive) |  | 40.4 µM (inactive)
